Assay results as given in ChEMBL document CHEMBL6114960, “Discovery of First-in-Class FXR and HSD17B13 Dual Modulator for the Treatment of Metabolic Dysfunction-Associated Fatty Liver Disease” (J Med Chem, 2025).

How the values were obtained:
[1] = target: T1, Bile acid receptor (Homo sapiens, UniProt Q96RI1); test: Agonist activity at FXR-LBD (unknown origin) incubated for 3 hrs in presence of fluorescein-coactivator peptide by TR-FRET analysis
T1 sequence (Q96RI1 whole entry): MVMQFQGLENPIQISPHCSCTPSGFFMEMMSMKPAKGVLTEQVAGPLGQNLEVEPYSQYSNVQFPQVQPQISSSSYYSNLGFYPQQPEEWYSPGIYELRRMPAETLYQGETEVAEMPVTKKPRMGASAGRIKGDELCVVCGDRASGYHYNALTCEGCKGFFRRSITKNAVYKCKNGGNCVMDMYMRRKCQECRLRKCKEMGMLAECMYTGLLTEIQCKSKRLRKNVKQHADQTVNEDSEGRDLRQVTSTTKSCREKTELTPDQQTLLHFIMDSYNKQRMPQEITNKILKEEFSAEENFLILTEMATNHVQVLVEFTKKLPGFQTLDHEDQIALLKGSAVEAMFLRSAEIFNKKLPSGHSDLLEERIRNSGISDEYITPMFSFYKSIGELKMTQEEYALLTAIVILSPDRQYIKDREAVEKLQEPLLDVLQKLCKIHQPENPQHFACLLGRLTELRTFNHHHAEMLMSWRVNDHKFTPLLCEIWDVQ

[2] = target: T2, Retinoic acid receptor gamma (Homo sapiens, UniProt P13631); test: Agonist activity at RARgamma (unknown origin) transfected in green monkey CV-1 cells co-transfected with NHR responsive luciferase reporter incubated for 18 hrs by luciferase assay; assay type: cell-based
T2 sequence (P13631 whole entry): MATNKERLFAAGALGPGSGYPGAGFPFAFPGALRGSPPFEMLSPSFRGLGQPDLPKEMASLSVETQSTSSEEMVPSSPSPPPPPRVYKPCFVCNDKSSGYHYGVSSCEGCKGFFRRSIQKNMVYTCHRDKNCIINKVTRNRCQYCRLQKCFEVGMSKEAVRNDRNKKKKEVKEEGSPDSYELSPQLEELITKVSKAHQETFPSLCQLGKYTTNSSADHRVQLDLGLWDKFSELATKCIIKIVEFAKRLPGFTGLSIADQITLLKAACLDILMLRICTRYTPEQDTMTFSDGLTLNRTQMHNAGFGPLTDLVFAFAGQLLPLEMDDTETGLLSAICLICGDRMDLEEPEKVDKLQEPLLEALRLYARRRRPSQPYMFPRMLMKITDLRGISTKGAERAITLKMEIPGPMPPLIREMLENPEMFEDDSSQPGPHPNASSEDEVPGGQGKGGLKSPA

[3] = target: T3, Progesterone receptor (Homo sapiens, UniProt P06401); test: Agonist activity at progesterone receptor (unknown origin) transfected in green monkey CV-1 cells co-transfected with NHR responsive luciferase reporter incubated for 18 hrs by luciferase assay; assay type: cell-based
T3 sequence (P06401 whole entry): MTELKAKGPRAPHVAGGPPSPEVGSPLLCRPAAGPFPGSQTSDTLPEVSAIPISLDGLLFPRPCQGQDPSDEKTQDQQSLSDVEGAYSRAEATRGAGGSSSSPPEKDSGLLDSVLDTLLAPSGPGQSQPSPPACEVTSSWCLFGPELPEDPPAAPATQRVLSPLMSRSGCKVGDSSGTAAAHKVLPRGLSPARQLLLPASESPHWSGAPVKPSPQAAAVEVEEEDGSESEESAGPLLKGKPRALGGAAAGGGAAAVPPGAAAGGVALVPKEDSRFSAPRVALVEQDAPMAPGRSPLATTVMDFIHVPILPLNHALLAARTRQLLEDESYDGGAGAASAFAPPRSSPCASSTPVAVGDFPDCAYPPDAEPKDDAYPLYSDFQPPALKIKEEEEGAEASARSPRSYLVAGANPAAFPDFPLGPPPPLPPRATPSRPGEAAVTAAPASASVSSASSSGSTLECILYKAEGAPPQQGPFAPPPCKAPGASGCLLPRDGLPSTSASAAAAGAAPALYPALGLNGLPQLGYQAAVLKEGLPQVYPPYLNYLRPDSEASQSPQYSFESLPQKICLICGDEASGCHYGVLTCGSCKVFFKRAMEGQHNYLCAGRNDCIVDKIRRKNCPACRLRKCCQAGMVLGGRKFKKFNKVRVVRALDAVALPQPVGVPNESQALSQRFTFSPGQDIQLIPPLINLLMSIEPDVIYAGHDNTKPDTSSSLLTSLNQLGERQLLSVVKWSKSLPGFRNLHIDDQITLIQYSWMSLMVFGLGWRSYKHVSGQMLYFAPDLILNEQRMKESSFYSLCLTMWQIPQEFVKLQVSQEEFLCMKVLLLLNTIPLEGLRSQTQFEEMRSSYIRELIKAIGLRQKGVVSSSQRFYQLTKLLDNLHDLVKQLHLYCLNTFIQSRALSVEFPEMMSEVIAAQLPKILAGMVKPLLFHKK

[4] = target: T4, Androgen receptor (Homo sapiens, UniProt P10275); test: Agonist activity at androgen receptor (unknown origin) transfected in green monkey CV-1 cells co-transfected with NHR responsive luciferase reporter incubated for 18 hrs by luciferase assay; assay type: cell-based
T4 sequence (P10275 whole entry): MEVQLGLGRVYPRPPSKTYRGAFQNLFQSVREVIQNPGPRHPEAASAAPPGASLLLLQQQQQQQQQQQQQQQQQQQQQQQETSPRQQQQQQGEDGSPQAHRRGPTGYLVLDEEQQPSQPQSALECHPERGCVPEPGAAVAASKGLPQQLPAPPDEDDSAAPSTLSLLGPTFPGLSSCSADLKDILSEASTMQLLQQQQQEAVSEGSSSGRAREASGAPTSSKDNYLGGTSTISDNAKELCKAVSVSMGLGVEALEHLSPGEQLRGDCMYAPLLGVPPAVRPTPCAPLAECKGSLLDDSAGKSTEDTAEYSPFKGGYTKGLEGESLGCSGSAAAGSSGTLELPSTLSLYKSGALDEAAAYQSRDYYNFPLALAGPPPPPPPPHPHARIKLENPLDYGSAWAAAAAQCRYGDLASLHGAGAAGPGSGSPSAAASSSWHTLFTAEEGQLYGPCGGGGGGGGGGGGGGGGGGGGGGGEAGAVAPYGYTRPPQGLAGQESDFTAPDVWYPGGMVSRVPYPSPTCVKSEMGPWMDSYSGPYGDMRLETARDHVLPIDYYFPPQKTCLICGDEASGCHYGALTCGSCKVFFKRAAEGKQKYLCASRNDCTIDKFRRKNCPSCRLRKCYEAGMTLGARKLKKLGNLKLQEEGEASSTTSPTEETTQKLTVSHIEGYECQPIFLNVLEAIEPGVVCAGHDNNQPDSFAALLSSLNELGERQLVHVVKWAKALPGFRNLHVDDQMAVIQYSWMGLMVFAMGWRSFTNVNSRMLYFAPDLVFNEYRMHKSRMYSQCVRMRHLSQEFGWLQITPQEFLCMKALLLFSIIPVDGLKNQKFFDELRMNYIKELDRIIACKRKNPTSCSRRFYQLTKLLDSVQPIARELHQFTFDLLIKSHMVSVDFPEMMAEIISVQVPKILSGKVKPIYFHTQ

- EC50 [1]: 0.052 µM
- EC50 [2]: > 10 µM
- EC50 [3]: > 10 µM
- EC50 [4]: > 10 µM
Structure (SMILES): O=C(O)c1ccc(-c2ccc(OCc3c(-c4c(Cl)cccc4Cl)noc3C3CC3)cc2)cc1
